What was measured:
SUM-159-PT TNBC cells = assay: Evaluation of paclitaxel-resistant SUM-159-PT cells; type: cell-based, human
Method: (§1) Briefly, to assess the cell viability, 3×10^3 cells/well (SUM-159PT, SUM Pac 200 nM, MDA-Bone-Un eIF4A CC and KO) were seeded and the cells were allowed to attach and spread overnight under adherent or non-adherent low attachment conditions.

[1] = tested on: triple-negative breast cancer (TNBC) cells; assay: Cell viability studies with CAST compounds; type: cell-based; details: for concentration level at which efficacy on tumor cell viability was shown: TNBC cell viability
BCSCs = details: cited from earlier work
[2] = tested on: LASP1-eIF4A interaction in 231S cells; assay: Proximity ligation assay (PLA) of LASP1-eIF4A interaction; type: cell-based, human; details: 100 nM AMD3465 30 min prior to 20 nM CXCL12 5 min
Method: The Duolink In Situ Orange Fluorescent kit (Sigma/Aldrich, St. Louis, Mo., Cat. No. DUO92102-1KT) was employed to detect the endogenous interaction between LASP1 and eIF4A in situ in 231S cells. The PLA was performed according to the manufacturer's instructions using a rabbit eIF4A1 antibody (Cohesion Biosciences, London, Purley, Cat. No. CQA1180) and a mouse LASP1 antibody (Biolegend, San Diego, Calif., Cat. No. 909301). The single Ab control condition represents the PLA reaction with only the LASP1 antibody. In addition, cells were stained with phalloidin (Life Technologies, Carlsbad, Calif., Cat. No. A12379) and nuclei with DRAQ5 (Thermo Scientific, Rockford, Ill., Cat No. 62251). Cells were stimulated and inhibited as described. Moreover, cells were fixed, stained, and permeabilized with standard methods. The images were acquired by two-photon confocal microscopy and processed with Leica Application Suite X software (Leica, Wetzlar, Germany). Quantification of the interaction dots was performed using ImageJ.

[3] = tested on: eIF4F complex in 231S cells; assay: m7GTP pulldown assay (eIF4F complex); type: cell-based, human
Method: 231S cells were serum starved for 1 h and cells were stimulated (and prepared) as described in the co-immunoprecipitation section. 100 nM AMD3465 (CXCR4 antagonist, Sigma-Aldrich, St. Louis, Mo., Cat. No. SML1433-5MG) was incubated 30 min prior to stimulation. 1 mg of total protein lysate in 1 mL of Co-IP buffer was incubated with 25 μL of m7-GTP agarose beads overnight at 4° C. (Jena Biosciences, Jena, Germany, Cat. No. AC-155S). Following incubation, beads were washed with Co-IP buffer. Protein was eluted and analyzed by SDS-PAGE and Western blotting.

[4] = tested on: CXCR4 signaling in 231S cells; assay: Western blotting of phosphorylation of eIF4B, PDCD4, 4E-BP1 after CXCR4 activation; type: cell-based, human
Method: Cell lysates were prepared and quantified as described. Western blots were incubated with the following 1° Abs: Cyclin D1 (Cell Signaling Technology, Danvers, Mass., Cat. No. 2922), eIF4A C32B4 (Cell Signaling Technology, Danvers, Mass., Cat. No. 2013), eIF4B 1F5 (Cell Signaling Technology, Danvers, Mass., Cat. No. 13088), p-eIF4B S422 (Thermo Scientific, Rockford, Ill., Cat No. PA5-38362), eIF4E C46H6 (Cell Signaling Technology, Danvers, Mass., Cat. No. 2067), eIF4G C45A4 (Cell Signaling Technology, Danvers, Mass., Cat. No. 2469), GST 26H1 (Cell Signaling Technology, Danvers, Mass., Cat. No. 2624), LASP1 8C6 (Biolegend, San Diego, Calif., Cat. No. 909301), MDM2 SMP14 (Santa Cruz Biotechnology, Dallas, Tex., Cat. No. sc-965), PDCD4 D29C6 (Cell Signaling Technology, Danvers, Mass., Cat. No. 9535), p-PDCD4 S67 (Sigma-Aldrich, St. Louis, Mo., Cat. No. P0072), ROCK1 C8F7 (Cell Signaling Technology, Danvers, Mass., Cat. No. 4035), survivin 71G4B7 (Cell Signaling Technology, Danvers, Mass., Cat. No. 2808), 4E-BP1 53H11 (Cell Signaling Technology, Danvers, Mass., Cat. No. 9644), p-4E-BP1 Thr70 (Cell Signaling Technology, Danvers, Mass., Cat. No. 9455), and β-tubulin D66 (Sigma/Aldrich, St. Louis, Mo., Cat. No. T0198). Following primary incubation, Western blots were incubated with Goat anti-Mouse IgG (H+L) Superclonal™ Secondary Ab conjugated to HRP (Thermo Scientific, Rockford, Ill., Cat No. A28177) or Goat anti-Rabbit IgG (H+L) Superclonal™ Secondary Ab conjugated to HRP (Thermo Scientific, Rockford, Ill., Cat No. A27036). Finally, blots were developed with Amersham™ ECL™ Prime Western Blotting Detection Reagent (GE Healthcare Life Sciences, Pittsburgh, Pa., Cat. No. RPN2232) and HyBlot ES™ Autoradiography Film (Denville Scientific, Swedesboro, N.J., Cat. No. E3212). Densitometry of the Western blots was performed using ImageJ. Calculation of fold change is given in the figure legend for each experiment.

eIF4A1 = target: T1, eIF4A1 (Homo sapiens, UniProt P60842); type: cell-based; details: 3 different TNBC cell lines
T1 construct: A GQ-5′-UTR dual reporter was created in breast cancer cell lines; endogenous in cells
T1 sequence (P60842 whole entry): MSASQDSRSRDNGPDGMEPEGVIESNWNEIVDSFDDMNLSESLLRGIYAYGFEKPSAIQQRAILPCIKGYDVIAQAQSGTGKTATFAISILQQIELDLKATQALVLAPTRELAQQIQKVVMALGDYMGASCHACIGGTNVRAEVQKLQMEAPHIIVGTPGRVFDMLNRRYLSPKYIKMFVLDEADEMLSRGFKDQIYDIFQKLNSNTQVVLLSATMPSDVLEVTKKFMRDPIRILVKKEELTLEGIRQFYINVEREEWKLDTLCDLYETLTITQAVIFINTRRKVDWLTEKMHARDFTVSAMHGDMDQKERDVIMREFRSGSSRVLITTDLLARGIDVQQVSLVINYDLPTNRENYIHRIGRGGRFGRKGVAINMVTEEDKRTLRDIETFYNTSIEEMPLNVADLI
Source text: A GQ-5′-UTR dual reporter was created in breast cancer cell lines which would report either a reduction in td-Tomato fluorescence or luciferase activity if eIF4A1 is inhibited by any of the compounds in the Prestwick library (FIGS. 26A-26B).

[5] = tested on: paclitaxel-resistant SUM-159PT cells; assay: Chemosensitivity to paclitaxel of CRISPR control and eIF4A1-KO cells derived from paclitaxel-resistant SUM-159PT (CellTiter-Glo); type: cell-based, human; details: 48 h; for IC50: Homo sapiens, SUM-159-PT
Method: as §1
For generation of CRISPR/Cas9-mediated eIF4A1 knockout (KO), a set of CRISPR/Cas9 plasmids (Santa Cruz, Dallas, Tex., Cat. #—sc-402623) were transfected into therapy-naïve and paclitaxel-resistant tumor cells using UltraCruz reagent (Santa Cruz, Dallas, Tex., Cat. #— sc-395739) following the manufacturer's instructions. After 24 h, the supernatant was removed and replaced with regular media and cells were further cultured for a total of 72 h. eIF4A1 KO cells were sorted out based on the expression of green fluorescent protein (GFP). Single KO cells were isolated by limiting dilution in 96-well plates. The KO was verified by immunoblotting for eIF4A. Non-targeting CRISPR/Cas9 plasmids were employed to obtain the CRISPR-control cells (Santa Cruz, Dallas, Tex., Cat. #—sc-418922).

SUM-159PT cells = assay: Immunoblotting of SUM-159PT cells after chronic paclitaxel treatment (Pac 200)
[6] = Pac 200 vs therapy naïve SUM-159PT
[7] = paclitaxel-resistant vs therapy-naïve SUM-159-PT

## COc1cccc2c1C(=O)c1c(O)c3c(c(O)c1C2=O)C[C@@](O)(C(=O)CO)C[C@@H]3O[C@H]1C[C@H](N)[C@H](O)[C@H](C)O1 [doxorubicin]
SUM-159-PT TNBC cells; paclitaxel-resistant SUM-159-PT cells
  cross-resistance of paclitaxel-resistant cells: cross-resistant

## Clc1ccccc1COc1ccc2ccccc2c1CNCc1cccnc1 [AN-465/41673523]
[1]
  concentration level at which efficacy on tumor cell viability was shown: 75 µM

## O=C(O)C(Cc1ccccc1[N+](=O)[O-])=NNc1nc(-c2ccc(Cl)c(Cl)c2)cs1 (mixture of isomers) [4EGI-1]
BCSCs; 4EGI-1 treated BCSCs
  NANOG, OCT4 levels: downregulated
BCSCs
  proliferation of BCSCs: effectively inhibited

## c1ccc(CNCc2ccc(CN3CCCNCCNCCCNCC3)cc2)nc1 [AMD3465]
[2]
  LASP1-eIF4A interaction dots (interactions/cell): 13.3±10.2 dots
[3]; 100 nM AMD3465
  effect on peak eIF4G recruitment at 5 min of CXCL12: reduced
[3]; pre-treatment 100 nM AMD3465
  effect on CXCL12-dependent recruitment of LASP1 at 5 min: abrogated
[4]; AMD3465
  effect on CXCL12-induced increase in p-eIF4B levels at 10 min: abrogated
  effect on CXCL12-induced increase in pT70-4E-BP1 levels: abrogated
[4]; AMD3465 pretreatment
  effect on CXCL12-induced increase in pS67-PDCD4 level at 5 min: abrogated

## C[C@]12CC[C@H](O)C[C@H]1CC[C@@H]1[C@@H]2CC[C@]2(C)[C@@H](C3=CC(=O)OC3)CC[C@]12O [digitoxigenin]
eIF4A1
  activity of eIF4A1: potently inhibited

## O=C(N/C(=C/c1cccnc1)c1nc2ccccc2[nH]1)c1cccc(Br)c1 [AE-848/14270010]
[1]; CRISPR/control cells, lowest concentration of 50 μM, read-out: loss of viability of TNBC cells
  cytotoxicity at 50 µM: ~35%
[1]; LASP1-knockout cells, 50 μM
  viability at 50 µM: 50%
[1]; LASP1 genetically knocked out
  loss of viability: 50%
[1]
  concentration level at which efficacy on tumor cell viability was shown: 50 µM
[1]; eIF4A1 knocked out cells
  cell viability change: gain in viability

## CC(=O)O[C@H]1C(=O)[C@@]2(C)[C@H]([C@H](OC(=O)c3ccccc3)[C@]3(O)C[C@H](OC(=O)[C@H](O)[C@@H](NC(=O)c4ccccc4)c4ccccc4)C(C)=C1C3(C)C)[C@]1(OC(C)=O)CO[C@@H]1C[C@@H]2O [paclitaxel]
SUM-159-PT TNBC cells; Homo sapiens, SUM-159-PT, parental SUM-159-PT cells, paclitaxel
  IC50: 2 nM
SUM-159-PT TNBC cells; paclitaxel-resistant vs parental SUM-159-PT
  resistance factor: 675.5 fold
[5]; CRISPR-control SUM-159PT cells (from Pac 200)
  IC50: 904 nM
[5]; eIF4A1-KO cells (from Pac 200)
  IC50: 609 nM
[5]; paclitaxel
  change in IC50, eIF4A1-KO vs CRISPR-control: −1.5 fold
SUM-159PT cells; [6]
  enhanced expression of Cyclin D3: 2.7 fold
  enhanced expression of NANOG: 1.4 fold
  enhanced expression of OCT4: 3 fold
  enhanced expression of SOX2: 2.7 fold
  enhanced expression of survivin or BIRC5: 4 fold
  increase in ABCB1 (P-glycoprotein, MDR1) protein level: 10.8 fold
  increase in ABCG2 (BCRP) protein level: 2.4 fold
  increase in ALDH1A1 level: 2.4 fold
  increase in CD44 level: 6.1 fold
  increase in expression of eIF4A: 25.8 fold
SUM-159PT cells; Pac 200 vs therapy naïve SUM-159PT, not statistically significant
  enhanced expression of ROCK1: 1.5 fold
SUM-159PT cells; [7]
  expression of E-cadherin: decreasing trend
  increase in Snail1 protein level: 2 fold
SUM-159PT cells; three biological replicates, p<0.0001
  increase in ABCB1 protein level, independent verification: 14 fold
SUM-159PT cells; three biological replicates, p<0.001
  increase in ABCG2 protein level, independent verification: 4 fold

## CC(=O)O[C@H]1C[C@H](O[C@H]2[C@@H](O)C[C@H](O[C@H]3[C@@H](O)C[C@H](O[C@H]4CC[C@@]5(C)[C@H](CC[C@@H]6[C@@H]5C[C@@H](O)[C@]5(C)[C@@H](C7=CC(=O)OC7)CC[C@]65O)C4)O[C@@H]3C)O[C@@H]2C)O[C@H](C)[C@H]1O[C@@H]1O[C@H](CO)[C@@H](O)[C@H](O)[C@H]1O [lanotoside C]
eIF4A1
  activity of eIF4A1: potently inhibited
